Experimental data from ChEMBL document CHEMBL1201862, “PubChem BioAssay data set” (2004).
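Where inhibition never reached the appropriate level, the endpoint shown equals the highest concentration tested. Otherwise, values were interpolated linearly from a five-concentration, 48-hour dose response in 96-well plates. Abbreviation: GI50, concentration required for 50% inhibition of growth.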 The source made the active and inactive calls. No stated cut-off is given here; in the data, active = GI50 up to about 1.1 µM and inactive = higher.

Legend:
Assay in all cases: NCI-60 cell line screen, 48 h
786-0 = system: 786-0
A498 = system: A498
A549 = system: A549
ACHN = system: ACHN
CCRF-CEM = system: CCRF-CEM
COLO 205 = system: COLO 205
DLD-1 = system: DLD-1
DMS-114 = system: DMS-114
DMS-273 = system: DMS-273
EKVX = system: EKVX
HCC 2998 = system: HCC 2998
HCT-116 = system: HCT-116
HCT-15 = system: HCT-15
HL-60 = system: HL-60
HOP-18 = system: HOP-18
HOP-62 = system: HOP-62
HOP-92 = system: HOP-92
HT-29 = system: HT-29
IGROV-1 = system: IGROV-1
K562 = system: K562
KM-20L2 = system: KM-20L2
LXFL 529 = system: LXFL 529
M14 = system: M14
M19-MEL = system: M19-MEL
MOLT-4 = system: MOLT-4
Malme-3M = system: Malme-3M
NCI-H226 = system: NCI-H226
NCI-H23 = system: NCI-H23
NCI-H522 = system: NCI-H522
OVCAR-4 = system: OVCAR-4
OVCAR-8 = system: OVCAR-8
RPMI-8226 = system: RPMI-8226
RXF 393 = system: RXF 393
SF-268 = system: SF-268
SF-295 = system: SF-295
SF-539 = system: SF-539
SK-MEL-28 = system: SK-MEL-28
SK-MEL-5 = system: SK-MEL-5
SK-OV-3 = system: SK-OV-3
SN12C = system: SN12C
SNB-19 = system: SNB-19
SNB-75 = system: SNB-75
SR = system: SR
SW-620 = system: SW-620
U-251 = system: U-251
UACC-257 = system: UACC-257
UACC-62 = system: UACC-62
UO-31 = system: UO-31
CAKI-1 = system: CAKI-1
KM12 = system: KM12
LOX IMVI = system: LOX IMVI
NCI-H460 = system: NCI-H460
OVCAR-3 = system: OVCAR-3
SNB-78 = system: SNB-78
TK-10 = system: TK-10

Measured: GI50

O=C1c2ccccc2N2OC3C4CCC(C4)C3C12c1ccccc1 (stereo not drawn)
45.8 µM: HCT-15
inactive: 786-0 > 100 µM | A498 > 100 µM | A549 55.5 µM | ACHN > 100 µM | CCRF-CEM 44.2 µM | COLO 205 > 100 µM | DLD-1 18.3 µM | DMS-114 62.5 µM | DMS-273 39.6 µM | EKVX > 100 µM | HCC 2998 > 100 µM | HCT-116 45.5 µM | HL-60 33.5 µM | HOP-18 > 100 µM | HOP-62 > 100 µM | HOP-92 40.8 µM | HT-29 61.4 µM | IGROV-1 > 100 µM | K562 47 µM | KM-20L2 98.2 µM | LXFL 529 73.8 µM | M14 92.5 µM | M19-MEL 93.1 µM | MOLT-4 32.1 µM | Malme-3M > 100 µM | NCI-H226 > 100 µM | NCI-H23 94.6 µM | NCI-H522 36 µM | OVCAR-4 > 100 µM | OVCAR-8 > 100 µM | RPMI-8226 37.1 µM | RXF 393 16.5 µM | SF-268 > 100 µM | SF-295 > 100 µM | SF-539 > 100 µM | SK-MEL-28 87.3 µM | SK-MEL-5 60.8 µM | SK-OV-3 > 100 µM | SN12C 86.9 µM | SNB-19 > 100 µM | SNB-75 > 100 µM | SR 44.1 µM | SW-620 > 100 µM | U-251 86.5 µM | UACC-257 70 µM | UACC-62 93.8 µM | UO-31 71.3 µM

CCSc1nc2cccc([N+](=O)[O-])c2n1CC
inactive: A549 > 100 µM | CAKI-1 > 100 µM | CCRF-CEM > 100 µM | COLO 205 > 100 µM | DLD-1 > 100 µM | DMS-114 > 100 µM | DMS-273 > 100 µM | EKVX > 100 µM | HCC 2998 > 100 µM | HL-60 > 100 µM | HOP-92 > 100 µM | HT-29 > 100 µM | IGROV-1 > 100 µM | K562 > 100 µM | KM12 > 100 µM | LOX IMVI > 100 µM | LXFL 529 > 100 µM | M14 > 100 µM | MOLT-4 > 100 µM | NCI-H226 > 100 µM | NCI-H23 > 100 µM | NCI-H460 > 100 µM | NCI-H522 > 100 µM | OVCAR-3 > 100 µM | OVCAR-4 > 100 µM | OVCAR-8 > 100 µM | RPMI-8226 > 100 µM | RXF 393 > 100 µM | SF-539 > 100 µM | SK-MEL-28 > 100 µM | SK-MEL-5 > 100 µM | SK-OV-3 > 100 µM | SNB-19 > 100 µM | SNB-75 > 100 µM | SNB-78 > 100 µM | SW-620 > 100 µM | TK-10 > 100 µM | U-251 > 100 µM | UACC-257 > 100 µM | UACC-62 > 100 µM
